Converted amounts (≈) assume the structure as drawn. Blank lines part the entries; values can stand above or below the compound they belong to.
Tests used:
Test in all cases: ≥ marks a high value that may be exact or a test limit, other limits are often not marked, values filed in µg/mL are converted to µM
[1] = tested on: Bacillus subtilis NRRL B-237
[2] = tested on: Salmonella typhimurium ATCC 23565
[3] = tested on: Serratia marcescens ATCC 17991
[4] = tested on: Brenneria salicis NCPPB 2530
[5] = tested on: Salmonella enterica subsp. enterica serovar Newport
[6] = tested on: Bacillus thuringiensis serovar tenebrionis DSM 2803
[7] = tested on: Pseudomonas syringae pv. tomato NCPPB 1106
Shigella flexneri CP87 = tested on: Shigella flexneri CP87
[8] = tested on: Escherichia coli NCTC 9001
[9] = tested on: Agrobacterium tumefaciens DSM 3129
[10] = tested on: Bacillus megaterium QMB 1551
[11] = tested on: Clavibacter michiganensis subsp. insidiosus NCPPB 1109
[12] = tested on: Paenibacillus alvei LMG 6922
[13] = tested on: Sinorhizobium meliloti ZB314
[14] = tested on: Staphylococcus aureus HNCMO 112011
[15] = tested on: Acinetobacter baumannii ATCC 17978
[16] = tested on: Escherichia coli ATCC 8739
[17] = tested on: Staphylococcus epidermidis ATCC 12228
[18] = tested on: Staphylococcus aureus CMCC 26003
[19] = tested on: Pseudomonas aeruginosa ATCC 27853
[20] = tested on: Escherichia coli CMCC 44102
Escherichia coli UB1005 = tested on: Escherichia coli UB1005
[21] = tested on: Staphylococcus aureus ATCC 29213
[22] = tested on: Salmonella enterica subsp. enterica serovar Typhimurium C77-31
[23] = tested on: Salmonella enterica subsp. enterica serovar Typhimurium ATCC 14028
[24] = tested on: Salmonella enterica subsp. enterica serovar Pullorum C79-13
[25] = tested on: Staphylococcus aureus ATCC 25923
[26] = tested on: Salmonella enterica subsp. enterica serovar Typhi CMCC 50071
Candida dubliniensis = tested on: Candida dubliniensis
[27] = tested on: Cutibacterium acnes ATCC 11827
[28] = tested on: Candida albicans NRRL Y-326
[29] = tested on: Aspergillus flavus ATCC MYA-3651
[30] = tested on: Candida krusei NRRL Y-27803
Aspergillus fumigatus = tested on: Aspergillus fumigatus
[31] = tested on: Klebsiella pneumoniae ATCC 10031
[32] = tested on: Pseudomonas aeruginosa ATCC 19660
Staphylococcus aureus MR = tested on: Staphylococcus aureus MR
[33] = tested on: Mucor circinelloides NRRL 3631
[34] = tested on: Fusarium solani NRRL 28548
Candida krusei = tested on: Candida krusei
[35] = tested on: Staphylococcus epidermidis ATCC 51625
Candida glabrata = tested on: Candida glabrata
Enterobacter cloacae = tested on: Enterobacter cloacae
Candida tropicalis = tested on: Candida tropicalis
Cutibacterium acnes = tested on: Cutibacterium acnes
Candida albicans 17-88 = tested on: Candida albicans 17-88
[36] = tested on: Staphylococcus aureus ATCC 33592
[37] = tested on: Lichtheimia corymbifera NRRL 6251
Debaryomyces hansenii = tested on: Debaryomyces hansenii
Candida albicans = tested on: Candida albicans
Staphylococcus aureus = tested on: Staphylococcus aureus
Kluyveromyces lactis = tested on: Kluyveromyces lactis
Candida parapsilosis = tested on: Candida parapsilosis
[38] = tested on: Cutibacterium acnes ATCC 6919
[39] = tested on: Candida parapsilosis NRRL Y-1761

MIC [1]: ≥ 100 µM | MIC [2]: 0.0501 µM (≈ 0.1 µg/mL) | MIC [3]: ≥ 100 µM | MIC [4]: 0.01 µM (≈ 0.02 µg/mL) | MIC [5]: 0.1 µM (≈ 0.2 µg/mL) | MIC [6]: ≥ 100 µM | MIC [7]: 0.1 µM (≈ 0.2 µg/mL) | MIC (Shigella flexneri CP87): 0.0501 µM (≈ 0.1 µg/mL) | MIC [8]: 0.0501 µM (≈ 0.1 µg/mL) | MIC [9]: 0.1 µM (≈ 0.2 µg/mL) | MIC [10]: ≥ 75.2 µM | MIC [11]: 25.1 µM (≈ 50 µg/mL) | MIC [12]: ≥ 100 µM | MIC [13]: 0.0501 µM (≈ 0.1 µg/mL)
Compound: CC[C@H](C)[C@H](NC(=O)[C@H](Cc1ccc(O)cc1)NC(=O)[C@@H](NC(=O)[C@@H]1CCCN1C(=O)[C@H](CCCN=C(N)N)NC(=O)[C@H](CC(N)=O)NC(=O)[C@H](CC(N)=O)NC(=O)CN)C(C)C)C(=O)N1CCC[C@H]1C(=O)N[C@@H](CCC(N)=O)C(=O)N1CCC[C@H]1C(=O)N[C@@H](CCCN=C(N)N)C(=O)N1CCC[C@H]1C(=O)N1CCC[C@H]1C(=O)N[C@@H](Cc1cnc[nH]1)C(=O)N1CCC[C@H]1C(=O)N[C@@H](CCCN=C(N)N)C(=O)O [GNNRPVYIPQPRPPHPR]

MIC [14]: 25 µM (≈ 28.5 µg/mL) | MIC [15]: 25 µM (≈ 28.5 µg/mL) | MIC [16]: 25 µM (≈ 28.5 µg/mL)
Compound: CC[C@H](C)[C@H](NC(=O)[C@H](CCCCN)NC(=O)[C@H](CCCCN)NC(=O)[C@H](C)NC(=O)[C@H](CC(C)C)NC(=O)[C@H](C)NC(=O)[C@H](C)NC(=O)[C@H](CC(C)C)NC(=O)[C@H](C)NC(=O)[C@@H](N)CCCCN)C(=O)N[C@@H](CC(C)C)C(=O)O [KALAALAKKIL]

MIC [17]: 8 µM (≈ 25.1 µg/mL) | MIC [18]: 8 µM (≈ 25.1 µg/mL) | MIC [19]: 32 µM (≈ 100 µg/mL) | MIC [20]: 8 µM (≈ 25.1 µg/mL)
Compound: CC[C@H](C)[C@H](NC(=O)[C@H](CCCN=C(N)N)NC(=O)[C@H](CCCN=C(N)N)NC(=O)[C@H](CC(C)C)NC(=O)[C@H](Cc1ccccc1)NC(=O)[C@@H]1CCCN1C(=O)[C@H](CCCN=C(N)N)NC(=O)[C@H](CCSC)NC(=O)[C@@H](NC(=O)[C@H](CCCCN)NC(=O)[C@H](CCCCN)NC(=O)[C@H](CS)NC(=O)[C@@H](NC(=O)CNC(=O)[C@@H]1CCCN1C(=O)[C@H](CC(C)C)NC(=O)[C@@H](NC(=O)[C@@H](N)CCCCN)[C@@H](C)CC)C(C)C)[C@@H](C)CC)C(=O)N[C@@H](CO)C(=O)N[C@@H](CCCCN)C(=O)N[C@@H](CC(=O)O)C(=O)N[C@H](C(=O)N[C@@H](CC(C)C)C(=O)N[C@H](C(=O)NCC(=O)N[C@@H](CCCCN)C(=O)N[C@@H](CCCCN)C(N)=O)[C@@H](C)O)[C@@H](C)CC [KILPGVCKKIMRPFLRRISKDILTGKK]

MIC [17]: > 128 µM | MIC (Escherichia coli UB1005): ≥ 32 µM | MIC [21]: > 128 µM | MIC [22]: ≥ 128 µM | MIC [23]: > 128 µM | MIC [24]: ≥ 128 µM | MIC [25]: 128 µM (≈ 212 µg/mL) | MIC [26]: ≥ 128 µM
Compound: NCCCC[C@H](NC(=O)[C@H](CCCCN)NC(=O)[C@H](CCCN=C(N)N)NC(=O)[C@H](CCCN=C(N)N)NC(=O)[C@H](Cc1c[nH]c2ccccc12)NC(=O)[C@H](CCC(N)=O)NC(=O)[C@H](Cc1c[nH]c2ccccc12)NC(=O)[C@H](CCCN=C(N)N)NC(=O)[C@H](CCCN=C(N)N)NC(=O)[C@H](CCCCN)NC(=O)[C@@H](N)CCCCN)C(N)=O [KKRRWQWRRKK]

MIC (Candida dubliniensis): 3.7 µM (≈ 7.96 µg/mL) | MIC [27]: 3.71 µM (≈ 7.98 µg/mL) | MIC [28]: 5.25 µM (≈ 11.3 µg/mL) | MIC [29]: 29.7 µM (≈ 63.9 µg/mL) | MIC [30]: 10.5 µM (≈ 22.6 µg/mL) | MIC (Aspergillus fumigatus): 29.7 µM (≈ 63.9 µg/mL) | MIC [31]: 3.71 µM (≈ 7.98 µg/mL) | MIC [32]: 3.71 µM (≈ 7.98 µg/mL) | MIC (Staphylococcus aureus MR): 2.62 µM (≈ 5.64 µg/mL) | MIC [33]: 29.7 µM (≈ 63.9 µg/mL) | MIC [34]: 0.927 µM (≈ 2 µg/mL) | MIC (Candida krusei): 5.23 µM (≈ 11.3 µg/mL) | MIC [35]: 1.85 µM (≈ 3.99 µg/mL) | MIC (Candida glabrata): 10.5 µM (≈ 22.7 µg/mL) | MIC [19]: 3.71 µM (≈ 7.98 µg/mL) | MIC (Enterobacter cloacae): 3.71 µM (≈ 7.98 µg/mL) | MIC (Candida tropicalis): 1.33 µM (≈ 2.86 µg/mL) | MIC (Cutibacterium acnes): 1.31 µM (≈ 2.82 µg/mL) | MIC (Candida albicans 17-88): 7.4 µM (≈ 15.9 µg/mL) | MIC [36]: 1.85 µM (≈ 3.99 µg/mL) | MIC [37]: 0.927 µM (≈ 2 µg/mL) | MIC (Debaryomyces hansenii): 7.4 µM (≈ 15.9 µg/mL) | MIC [15]: 3.71 µM (≈ 7.98 µg/mL) | MIC (Candida albicans): 10.5 µM (≈ 22.7 µg/mL) | MIC (Staphylococcus aureus): 5.25 µM (≈ 11.3 µg/mL) | MIC (Kluyveromyces lactis): 1.9 µM (≈ 4.09 µg/mL) | MIC (Candida parapsilosis): 15 µM (≈ 32.3 µg/mL) | MIC [38]: 1.85 µM (≈ 3.99 µg/mL) | MIC [39]: 14.8 µM (≈ 31.9 µg/mL)
Compound: CC[C@H](C)[C@@H]1NC(=O)CNC(=O)[C@H](CCCCN)NC(=O)[C@H](Cc2ccc(O)cc2)NC(=O)[C@@H]2CSSC[C@H](NC1=O)C(=O)N[C@@H](Cc1ccc(O)cc1)C(=O)N[C@@H](CCCCN)C(=O)N[C@@H](CCCCN)C(=O)N[C@H](C(=O)N[C@@H](CCCCN)C(N)=O)CSSC[C@H](NC(=O)[C@H](Cc1c[nH]c3ccccc13)NC(=O)[C@@H](N)CCCN=C(N)N)C(=O)N[C@@H](Cc1ccccc1)C(=O)N[C@@H](CCCCN)C(=O)N[C@@H](C(C)C)C(=O)N2 [RWCFKVCYKGICYKKCK]

— DBAASP
